Results as given in article PMC12186263, “Molecular Basis for Peptide Nitration by a Novel Cytochrome P450 Enzyme in RiPP Biosynthesis” (ACS Catalysis, 2025).

Assays:
ferrous RufO = assay: Stopped-flow transient kinetics of O2 and •NO binding to ferrous RufO; settings: for association rate constant k1: 3.3 μM ferrous RufO; for association rate constant k1 / dissociation rate constant k2 (y-intercept): pH 8.0, linear fit
Experimental: 5 Transient kinetics of ferrous RufO binding to O2 and ^•NO. Spectral changes following the rapid mixing of 3.3 μM ferrous RufO bound to MRYLH with (A) 18 μM O2 and (C) 70 μM ^•NO over 0.2 s. The black-to-red spectral transitions represent the formation of (A) a ferric-superoxo intermediate and (C) a ferrous-nitrosyl complex. Insets show the time-dependent absorbance changes at 438 nm (the most pronounced shift), fitted using single exponential equations to determine rate constants (red trace). Dependence of rate constant as a function of gas concentration on (B) O2 and (D) ^•NO binding to ferrous RufO alone (blue) and peptide-bound RufO (red). Second-order rate constants were determined through linear fitting. TEXT PRINTED IN THE PICTURE: (A) + O2: kobs = 74.3 s^-1 | (B) RufO alone: k1 = 3.55 μM^-1 s^-1 | (B) peptide-bound: k1 = 3.83 μM^-1 s^-1 | (C) + •NO: kobs = 107.4 s^-1 | (D) RufO alone: k1 = 4.12 μM^-1 s^-1 | (D) peptide-bound: k1 = 2.35 μM^-1 s^-1
Stopped-flow spectroscopic data were collected using an Applied Photophysics SX20 stopped-flow system equipped with a photodiode array detector. The system was maintained in an anaerobic chamber (O2 < 1 ppm) and all sample preparation was done anaerobically. Measurements were performed at 4 °C. All samples were prepared in a buffer containing 50 mM Tris-HCl and 100 mM NaCl, pH 8.0. RufO was prereduced with a minimal amount of sodium dithionite. The final mixed concentrations of RufO and MRYLH (where applicable) were 3.3 and 24 μM, respectively. Solutions of varying O2 concentrations were prepared by diluting air-saturated buffer with anaerobic buffer. The concentrations of O2 in the air-saturated buffer were measured with an Oxygraph+ oxygen electrode (Hansatech). To generate ^•NO-containing solutions, 0.5 mM DEA NONOate (≥98%, Cayman Chemical) was incubated in anaerobic buffer for 4 h to ensure complete ^•NO release. The ^•NO concentrations were quantified based on a hemoglobin assay, and further dilutions were made with anaerobic buffer immediately prior to mixing. Experimental data were analyzed by the ProK software package from Applied Photophysics. The second-order rate constants were obtained from linear fitting, with the resulting equations: y = 3.55x + 54.4 for the mixing of RufO with O2, y = 3.83x + 6.5 for the ES complex with O2, y = 4.12x −158.0 for RufO with ^•NO, and y = 2.35x – 58.9 for the ES complex with ^•NO.
Figure S9. Transient kinetics of ferrous RufO alone binding to O2 and •NO Spectral changes following the rapid mixing of 3.3 μM ferrous RufO with (A) 18 μM O 2 and […] superoxo intermediate and (B) a ferrous-nitrosyl complex. Insets show the time-dependent absorbance changes at 438 nm (the most pronounced shift), fitted using first-order exponential equations to determine rate constants (red trace).
(1 picture or pasted object on this page, not shown here)

RufO [1] = target: T1, RufO (Streptomyces atratus, UniProt A0A224AU14); assay: LC-MS of single-turnover RufO reaction with sequential O2 and •NO addition; type: biochemical; settings: 100 μM pre-reduced RufO, 150 μM MRYLH, 150 μM O2 30 s then 150 μM •NO 30 s, 50 mM ammonium acetate pH 7.5
T1 construct: made in house
T1 sequence (A0A224AU14 1-394): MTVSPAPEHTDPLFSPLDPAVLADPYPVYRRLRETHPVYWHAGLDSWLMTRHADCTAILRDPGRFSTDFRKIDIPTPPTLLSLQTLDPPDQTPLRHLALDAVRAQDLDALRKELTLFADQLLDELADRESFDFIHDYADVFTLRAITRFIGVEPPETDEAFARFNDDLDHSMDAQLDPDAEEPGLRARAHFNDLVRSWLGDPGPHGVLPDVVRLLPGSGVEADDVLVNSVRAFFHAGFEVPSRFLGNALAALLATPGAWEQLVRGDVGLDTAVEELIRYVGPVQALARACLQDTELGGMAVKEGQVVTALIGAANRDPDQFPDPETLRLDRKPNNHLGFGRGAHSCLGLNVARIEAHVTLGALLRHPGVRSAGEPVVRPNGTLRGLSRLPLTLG

TxtE = target: T2, TxtE (Streptomyces scabiei, UniProt C9ZDC6); settings: Trp-bound TxtE; reported, ref number not given; cited from earlier work
T2 sequence (C9ZDC6 1-406): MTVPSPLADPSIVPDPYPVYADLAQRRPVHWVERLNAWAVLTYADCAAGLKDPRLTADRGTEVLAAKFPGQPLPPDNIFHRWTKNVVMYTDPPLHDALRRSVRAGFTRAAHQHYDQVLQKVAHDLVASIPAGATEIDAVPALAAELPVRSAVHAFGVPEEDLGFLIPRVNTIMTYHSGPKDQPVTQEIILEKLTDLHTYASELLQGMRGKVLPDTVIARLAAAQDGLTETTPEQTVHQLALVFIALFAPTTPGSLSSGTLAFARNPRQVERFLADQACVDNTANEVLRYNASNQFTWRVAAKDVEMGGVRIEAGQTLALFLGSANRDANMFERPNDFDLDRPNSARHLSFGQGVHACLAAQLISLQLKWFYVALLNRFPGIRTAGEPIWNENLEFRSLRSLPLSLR

RufO [2] = target: T1, RufO; settings: spectroscopic and structural analyses; ref number not given; cited from earlier work
Source text: Recent studies on a nitrating CYP have showcased collective efforts to uncover a novel enzymatic function in RiPP biosynthesis. Nitration is a biologically significant transformation that modifies the function, stability, and reactivity of proteins and other biomolecules. − While most biological nitration processes are known to proceed through less specific reactions involving peroxynitrite and other nitrative reactive species, , biocatalytic nitration is rare and underexplored. The first example was reported for TxtE in thaxtomin biosynthesis, which catalyzes the direct nitration of L-trypto ...

RufO [3] = target: T1, RufO; settings: recent report, ref number not given; cited from earlier work
Source text: The integration of spectroscopic and structural characterization allows us to elucidate the molecular mechanism of substrate recognition and nitration activity in RufO. Our findings provide important insights into the catalytic process, enabling us to propose a mechanistic model for RufO-mediated peptide nitration (Figure S13). In its resting state, RufO adopts a six-coordinate, low-spin heme configuration with a water molecule as the distal ligand. While its heme environment is spectroscopically similar to that of typical CYPs, the flexibility of the B/C loop and the F and G helices contribut ...

[4] = peptide-bound ferrous RufO + O2, 4 °C, pH 8.0

Compound: O=O [O2]
- kobs (ferrous RufO; MRYLH-bound ferrous RufO 3.3 μM, 18 μM O2, 438 nm, single exponential, 4 °C): 74.3 s⁻¹
- association rate constant k1 (ferrous RufO; MRYLH-bound, 24 μM MRYLH, 4 °C): 3.83 μM^–1 s^–1
- association rate constant k1 (ferrous RufO; RufO alone, 4 °C): 3.55 μM^–1 s^–1
- dissociation rate constant k2 (y-intercept) (ferrous RufO; RufO alone, 4 °C): 54.4 s^–1
- O2 binding faster than •NO (times) (ferrous RufO; in the presence of the peptide, ratio of k1): 1.6 times
- dissociation rate constant k2 (y-intercept) (ferrous RufO; peptide-bound RufO, 4 °C): 6.5 s^–1
- ferric-superoxo intermediate stable for up to (ferrous RufO; [4]): up to 100 s
- time of peak of ferric-superoxo intermediate (ferrous RufO; [4]): approximately 0.05 s
- product yield, O2-first vs reverse order (RufO [1]): approximately double the product yield
- k1 of O2 binding (TxtE): 4.43 μM^–1 s^–1

Compound: N[C@@H](Cc1ccc(O)cc1)C(=O)O [Tyr, L-tyrosine]
- binding to RufO, in words (RufO [2]): unable to bind

Compound: MRFLH
- nitration by RufO, in words (RufO [3]): RufO cannot nitrate
